Measured values from patent US20260347403A1, “FUNGICIDAL COMPOUND” (priority 2022, published 2026).
Values joined by “and” are separate entries in the source; they are usually repeats but may differ in a detail not shown here. Equal values may be shown once. Numbered stars: 1 amine (or outer) side, 2 acyl side, 3 side chain; on linkers, the order of the positions; unused ones are H or OH. Bridge positions count the residues as written; N and C are the ends. Square brackets hold non-standard residues; d marks the D form. Peptide text beside a SMILES is read from it. * marks the point of attachment. Tridecanoyl(12-Me) = CC(C)CCCCCCCCCCC(=O)*; X1 = NC(=O)CC(O)C(N[*:1])C(=O)[*:2]; NMeF = CN[CH](Cc1ccccc1)C(=O)O; NMeN = CN[CH](CC(N)=O)C(=O)O; X2 = CCC(C)CCCCCCCCCCC(=O)*

What was measured:
Zymoseptoria tritici = test: Liquid culture 96-well mixture assay with malonomicin, Zymoseptoria tritici, 72 hrs; type: cell-based; conditions: read-out: control of fungal growth (% reduction)
Method: A stock solution for compound of Formula I(a) was produced in DMSO (max. 10 mg/ml). Malonomicin was produced according to Law et al, 2018 (Nature Catalys is |VOL 1|DECEMBER 2018|977-984). A stock solution of malonomicin was produced in water plus 0.025% Tween® 20.
Assays to test efficacy of mixtures of the lipopeptide compound of Formula I(a) in combination with malonomicin on the control of fungal pathogens in a liquid culture assay were designed for a 96well plate as outlined in table 1:
The 96 well plate design allows to compare disease control of the mixture with disease control of the respective single compound at the same rate.
A master plate with 10× concentrated solution of the compound stock solutions diluted in water plus 0.025% Tween® 20 was prepared. The concentration of DMSO (from the stock of compound of Formula (a)) and Tween® 20 was kept constant in all cells of the master plate. 10 μl was transferred from the master plate to a 96well test plate. The nutrient broth containing the fungal spores/mycelia fragments was then added to the test plate to give an end concentration of 1× for the tested compounds (as outlined in Table 8). The test plates were incubated in the dark at 24 °C and 96% rh. The inhibition of fungal growth was determined photometrically after ca 3 days, and percent fungal growth reduction relative to the untreated check was calculated.
Zymoseptoria tritici (EPPO Code: SEPTTR)
Conidia of the fungus from cryogenic storage were directly mixed into nutrient broth (PDB: potato dextrose broth).

Puccinia recondita = test: Leaf disc mixture assay with malonomicin, Puccinia recondita, curative spray timing, 8 dpi; type: in vivo, Puccinia recondita on wheat (cultivar Kanzler)
Method: A stock solution for the lipopeptide compound of Formula I(a) was produced in DMSO (max. 10 mg/ml). Malonomicin was produced according to Law et al, 2018 (Nature Catalys is |VOL 1|DECEMBER 2018|977-984). A stock solution of malonomicin was produced in water plus 0.025% Tween®20.
Assays to test efficacy of mixtures of compound of Formula I(a) in combination with malonomicin on the control of fungal pathogens in a leaf disc assay were designed for two 24well plates.
Table 22 and Table 23. Outline of 24well testplate (1) and testplate (2) including concentration of compounds sprayed per well. The upper number in the cell indicates compound of Formula I(a) concentration (ppm), the lower number malonomicin concentration (ppm). Column (1) holds a dilution series of compound of Formula I(a), row (2-D) hold a dilution series of malonomicin. Well 2-D-(1) represents an untreated check. This design was applied for tests including Puccinia recondita (EPPO code: PUCCRE) with preventive and curative spray timing.
A first set of master plates with 1× concentrated spray solution of the lipopeptide compound of Formula I(a) stock diluted in water with concentrations according to table 22, table 23, table 25 or table 26, respectively, was prepared. Each well contained 2% DMSO and 0.025% Tween20. Accordingly, a second set of master plates with 1× concentrated malonomicin stock diluted in water was prepared. Each well of the second set contained 0.025% Tween20. Leaf segments placed on agar in 24well plates were sprayed with 8 μl of solution from the master plate containing the lipopeptide compound of Formula I(a) and the leaf segments were let to dry, followed 2 hours later by 8 μl of solution from the master plate containing malonomicin. After second sprays had dried, leaf segments were infected with fungal spores to obtain a preventive application timing. Alternatively, leaf segments infected one day before spray of the compounds were used, resulting in a curative spray timing. In addition, several plates were produced where leaf segments were sprayed 2× in absence of test compound (with only DMSO and Tween20), representing the untreated check samples. For each leaf segment percent leaf coverage of disease symptoms was assessed. Percent leaf coverage reduction relative to the untreated check was calculated. Efficacy of the mixtures was tested in duplicate and on different fungal species. Reported efficacy values are the average of two replicate results.
Puccinia recondita (EPPO Code: PUCCRE) with Curative Spray Timing.
Wheat (cultivar Kanzler) leaf segments are placed on agar in multiwell plates (24-well format). The leaf disks are then inoculated with a spore suspension of the fungus. One day after inoculation the test solution is sprayed (8 ul per well). After appropriate incubation the activity of a compound is assessed 8 dpi (days after inoculation) as curative fungicidal activity

[1] = system: Puccinia recondita f. sp. tritici; test: Leaf painting assay in wheat seedling, Puccinia recondita; type: in vivo, Puccinia recondita f. sp. tritici on wheat (variety Arina); conditions: for % reduction of fungal growth: middle segment; for control on the treated area (middle segment): up to, Table 6, Puccinia
Method: Wheat seedlings of the variety Riband (for Zymoseptoria tritici trials) or variety Arina (for Puccinia recondite trials) were grown in a glasshouse until 14 d after seeding. At this time, such seedlings usually have a first leaf fully emerged (designated L1), a second leaf fully emerged (L2) and a third leaf (L3) that was partially emerged and in the process of development. Using a permanent pen, two dots were applied on the second leaf such as to generate three segments of roughly equal size: Segment A (at the base), segment B (middle part) and segment C (upper part of the leaf). A stock solution of the test compound was produced in DMSO at a concentration of 10′000 ppm. […] The diluted compound was applied to the middle segment of L2 using a conventional cotton stick; the cotton stick was soaked in the diluted compound and rubbed several times on the adaxial leaf surface between the two marks. 1 day later, the complete plant was inoculated with a fungal spore suspension using a paint brush and application of the spore suspension until before run-off.
For infection with Puccinia recondita: The test plants were inoculated by spraying them with a spore suspension 1 day after application (spore suspension at 80′000 spores per ml in water supplemented with Tween® 20 at 0.1%). After an incubation period of 1 day at 20 °C and 95% rh, the inoculated test plants were kept at 20 °C and 60% rh in a greenhouse.
The three segments of the leaf were evaluated individually.

## NC[C@@H]1NC(=O)C(C(=O)CC(NC(=O)[C@@H](N)CO)(C(=O)O)C(=O)O)=C1O [malonomicin, {[(2S)-2-amino-3-hydroxypropanoyl]amino}{2-[(5S)-5-(aminomethyl)-4-hydroxy-2-oxo-2,5-dihydro-1H-pyrrol-3-yl]-2-oxoethyl}malonic acid]
Zymoseptoria tritici; malonomicin 1.00 ppm
  inhibition of growth at 1 ppm: 0%
Zymoseptoria tritici; malonomicin 3.00 ppm
  inhibition of growth at 3 ppm: 0%
Zymoseptoria tritici; malonomicin 7.81 ppm
  inhibition of growth at 7.81 ppm: 0%
Zymoseptoria tritici; malonomicin 15.63 ppm
  inhibition of growth at 15.63 ppm: 20%
Zymoseptoria tritici; malonomicin 31.25 ppm
  inhibition of growth at 31.25 ppm: 20%
Zymoseptoria tritici; malonomicin 62.5 ppm
  inhibition of growth at 62.5 ppm: 50%
Zymoseptoria tritici; malonomicin 125 ppm
  inhibition of growth at 125 ppm: 70%
Zymoseptoria tritici; malonomicin 250 ppm
  inhibition of growth at 250 ppm: 70%
Zymoseptoria tritici; malonomicin 500 ppm
  inhibition of growth at 500 ppm: 90%
Zymoseptoria tritici; malonomicin 1000 ppm
  inhibition of growth at 1000 ppm: 100%
Puccinia recondita; column (2): malonomicin 200 ppm, compound of Formula I(a) lines 1-A to 2-D = 200, 100, 50, 25, 12.5, 6.25, 3.13, 0 ppm
  control of fungal growth (% reduction of symtoms on the leaf segment as compared to untreated check): 100%
Puccinia recondita; column (3): malonomicin 20 ppm, compound of Formula I(a) lines 1-A to 2-D = 200, 100, 50, 25, 12.5, 6.25, 3.13, 0 ppm
  control of fungal growth (% reduction of symtoms on the leaf segment as compared to untreated check): 100%
Puccinia recondita; column (4): malonomicin 6.67 ppm, compound of Formula I(a) lines 1-A to 2-D = 200, 100, 50, 25, 12.5, 6.25, 3.13, 0 ppm
  control of fungal growth (% reduction of symtoms on the leaf segment as compared to untreated check): 100%
Puccinia recondita; column (5): malonomicin 2.22 ppm, compound of Formula I(a) lines 1-A to 2-D = 200, 100, 50, 25, 12.5, 6.25, 3.13, 0 ppm
  control of fungal growth (% reduction of symtoms on the leaf segment as compared to untreated check): 70%
Puccinia recondita; column (6): malonomicin 0.74 ppm, compound of Formula I(a) lines 1-A to 2-D = 200, 100, 50, 25, 12.5, 6.25, 3.13, 0 ppm
  control of fungal growth (% reduction of symtoms on the leaf segment as compared to untreated check): 35%

## CCC(C)CCCCCCCCCCC(=O)NC1C(=O)NC(CC(=O)O)C(=O)NC(C(O)CC(N)=O)C(=O)NC(CO)C(=O)N(C)C(CC(N)=O)C(=O)N(C)C(Cc2ccccc2)C(=O)NC(CCC(N)=O)C(=O)NC(CCC(=O)O)C(=O)OC1C (centres unmarked) [Formula I(b)] (X2-TD[X1]S[NMeN][NMeF]QE; ester 1-C; configuration not given here)
[1]; 20 ppm
  % reduction of fungal growth: 55%
[1]; 200 ppm
  % reduction of fungal growth: 67%
[1]
  control on the treated area (middle segment): up to 70%

## CC(C)CCCCCCCCCCC(=O)NC1C(=O)NC(CC(=O)O)C(=O)NC(C(O)CC(N)=O)C(=O)NC(CO)C(=O)N(C)C(CC(N)=O)C(=O)N(C)C(Cc2ccccc2)C(=O)NC(CCC(N)=O)C(=O)NC(CCC(=O)O)C(=O)OC1C (centres unmarked) [Formula I(a)] ({Tridecanoyl(12-Me)}-TD[X1]S[NMeN][NMeF]QE; ester 1-C; configuration not given here)
[1]; 20 ppm
  % reduction of fungal growth: 70%
[1]; 200 ppm
  % reduction of fungal growth: 61%
[1]
  control on the treated area (middle segment): up to 70%
Zymoseptoria tritici; I(a) 1.56 ppm
  inhibition of growth at 1.56 µg/mL: 0%
Zymoseptoria tritici; I(a) 3.125 ppm
  inhibition of growth at 3.125 µg/mL: 20%
Zymoseptoria tritici; I(a) 6.25 ppm
  inhibition of growth at 6.25 µg/mL: 50%
Zymoseptoria tritici; I(a) 12.5 ppm
  inhibition of growth at 12.5 µg/mL: 70%
Zymoseptoria tritici; I(a) 25 ppm
  inhibition of growth at 25 µg/mL: 70%
Zymoseptoria tritici; I(a) 50 ppm
  inhibition of growth at 50 µg/mL: 90%
Zymoseptoria tritici; I(a) 100 ppm
  inhibition of growth at 100 µg/mL: 90%
Puccinia recondita; column (1): compound of Formula I(a) alone, lines 1-A to 2-C = 200, 100, 50, 25, 12.5, 6.25, 3.13 ppm
  control of fungal growth (% reduction of symtoms on the leaf segment as compared to untreated check): 0% and 10%
